Source: patent US20250171404A1, “PCNA INHIBITORS AND USES THEREOF” (CITY OF HOPE, priority 2022, published 2025)

Key:
7SM0032 [1] = test: Apoptosis (TUNEL assay), nonmalignant cells; assay type: cell-based, human; conditions: 500 nM, 24 h; 7SM0032 cells
Protocol: (§1) FIGS. 3A-3D. Therapeutic properties of AOH1996. FIG. 3A: Normal cells (7SM0032) or cancer cells (SH-SY5Y and SK-N-BE(2)c) cells were fixed, stained with PI, and analyzed by flow cytometry following treatment with 500 nM AOH1996 for the indicated time. FIG. 3B: SK-N-DZ neuroblastoma cells and nonmalignant 7SM0032 stem cells were incubated with 500 nM AOH1996 for 24 h. Then, after being fixed on slides, cell apoptosis were analyzed by a TUNEL assay. Left: TMR fluorophore attached to the free ends of DNA indicates cells undergoing apoptosis. DAPI stained nuclei also shown. Right: Average abundance ±S.D. of apoptotic 7SM0032 (black histogram) and SK-N-DZ (grey histogram) cells relative to the total number of cells are shown in 5 randomly selected fields. […] The relative number of colonies determined in triplicates for each treatment condition were averaged and graphed ±SDs (*, P<0.01). […] Cell growth was measured as the percentage of cell confluence by imaging every 6 h for a total of 48 h.
Cell apoptosis was measured on a chamber slide at a seeding density of 1×10^5/mL. After treatment with 500 nM AOH1996 for 24 h, cells were fixed and analyzed by a TUNEL assay using the TMR red in situ cell death detection kit (Roche Diagnostics).

[2] = Oral pharmacokinetic study in dogs; assay type: in vivo, beagle dogs
Protocol: FIGS. 4A-4H. Pharmacokinetics and anti-tumor growth activity of AOH1996 in vivo. FIG. 4A: After oral administration, the plasma concentrations of AOH1996 from three male and three female ES1^e/SCID mice at the indicated time points were averaged and graphed ±S.D. The inset contains PK parameters determined by a standard noncompartmental method. FIG. 4B: A similar PK study of AOH1996 was performed in dogs. FIGS. 4C-4E: Mice bearing the xenograft tumors of neuroblastoma (FIG. 4C: SK-N-BE(2)c), breast cancer (FIG. 4D: MDA-MB-468), and small-cell lung cancer (FIG. 4E: H82) were given vehicle only (black) or 40 mg/kg of AOH1996 (grey) twice daily immediately after the first measurement. Tumor sizes were measured by a dial caliper each week. […] FIG. 4F: Animal body weight was monitored throughout the studies as an indicator of toxicity. […] FIG. 4G: The levels of phosphor-Chk1 (pChk1) and γH2A.X in SK-N-BE(2)c derived tumor samples were analyzed by IHC. […] The p values determined by the Log-rank (Mantel-Cox) test between combination treatment and each of the control groups are p=0.0003 (Combination vs. NoRx), p=0.005 (Combination vs. AOH1996 alone), and p=0.024 (Combination vs. CPT-11 alone).
Pharmacokinetic (PK) study in animals. […] Following removal of blood cells, plasma concentration of AOH1996 was determined by LC-MS/MS as described (Gu et al., 2018). […]

7SM0032 [3] = test: Cell cycle analysis (PI, flow cytometry), nonmalignant cells; assay type: cell-based, human; conditions: 500 nM; nonmalignant 7SM0032 cells
Protocol: as §1, with “fields. FIG. 3C: Human SK-N-DZ neuroblastoma cells were treated with or without the indicated concentrations of cisplatin in the absence or presence of 500 nM of AOH1996 for 18 hours.” for “fields.”
Cell Cycle Analysis. […] PI fluorescence intensity of the cells was measured by flow cytometry and the data was analyzed using the FlowJo program.

COc1cccc(Oc2ccccc2NC(=O)CNC(=O)c2cccc3ccccc23)c1 [AOH1996, N-(2-((2-(3-methoxyphenoxy)phenyl)amino)-2-oxoethyl)-1-naphthamide]
apoptosis (7SM0032 [1]): Nor does it induce apoptosis in 7SM0032 cells
PK parameters in dogs [2]: Comparable PK parameters
change in cell-cycle profile (7SM0032 [3]): does not significantly change the cell-cycle profiles
